Values after ≈ are worked out from the molar mass of the structure shown.
Tested on: up to 32 different microorganisms
Assay: in vitro antibacterial activity (MIC), agar dilution on Brain Heart Infusion (BHI) agar with Steers replicator
Assay type: cell-based
Settings: unit assumed
Procedure, shortened: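 Up to 32 strains were replicator-inoculated (1:100, or 1:10 for Micrococcus and Streptococcus) onto BHI agar plates holding serial compound dilutions and kept 20-24 h at 35-37° C. Plates were read visually against drug-free growth controls, with erythromycin A run alongside; MIC was the lowest concentration giving no growth, slight haze or sparse colonies.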

[1] = Candida albicans CCH 442 (code TT)
[2] = Enterococcus faecism ATCC 8043 (code II)
[3] = Escherichia coli DC-2 (code SS)
[4] = Escherichia coli JUHL (code QQ)
[5] = Haemophilis influenzae DILL AMP R (code WW)
[6] = Micrococcus luteus ATCC 4698 (code PP)
[7] = Micrococcus luteus ATCC 9341 (code OO)
[8] = Mycobacterium smegmatis ATCC 114 (code UU)
[9] = Nocardia Asteroides ATCC9970 (code VV)
[10] = Staphylococcus aureus 1775 (code GG)
[11] = Staphylococcus aureus A5177 (code BB)
[12] = Staphylococcus aureus A-5278 (code CC)
[13] = Staphylococcus aureus ATCC 6538P (code AA)
[14] = Staphylococcus aureus CMX 553 (code FF)
[15] = Staphylococcus aureus CMX 642A (code DD)
[16] = Staphylococcus aureus NCTC10649M (code EE)
[17] = Staphylococcus epidermidis 3519 (code HH)
[18] = Streptococcus Pneumonia 5649 (code ZZA)
[19] = Streptococcus Pneumonia 5979 (code ZZ)
[20] = Streptococcus Pneumonia ATCC6303 (code XX)
[21] = Streptococcus Pneumonia GYR 1171 (code YY)
[22] = Streptococcus agalactiae CMX 508 (code KK)
[23] = Streptococcus bovis A-5169 (code JJ)
[24] = Streptococcus pyogenes 930 (code MM)
[25] = Streptococcus pyogenes EES61 (code LL)
[26] = Streptococcus pyogenes PIU 2548 (code NN)

Question: For CC[C@H]1OC(=O)[C@H](C)C(=O)[C@H](C)[C@@H](O[C@@H]2O[C@H](C)C[C@H](N(C)C)[C@H]2O)[C@@](C)(OCC=Cc2ccc(OC)cc2)C[C@@H](C)C(=O)[C@H](C)[C@@H](O)[C@]1(C)O [Example 16, Compound of Formula (VIII): X is O, R is —CH2CH═CH-(4-methoxyphenyl)], which MIC [1] is on record?
Answer: > 100 µg/mL

Question: And the MIC [2]?
Answer: 0.78 µg/mL

Question: And the MIC [3]?
Answer: > 100 µg/mL

Question: What about the MIC [4] of the same compound?
Answer: > 100 µg/mL

Question: And the MIC (Escherichia coli SS (code RR))?
Answer: 6.2 µg/mL

Question: And the MIC [5]?
Answer: 128 µg/mL

Question: What about the MIC [6] of the same compound?
Answer: 0.78 µg/mL

Question: What about the MIC [7] of the same compound?
Answer: 0.2 µg/mL

Question: And the MIC [8]?
Answer: 3.2 µg/mL

Question: What about the MIC [9] of the same compound?
Answer: 1.56 µg/mL

Question: And the MIC [10]?
Answer: > 100 µg/mL

Question: What about the MIC [11] of the same compound?
Answer: 1.56 µg/mL

Question: And the MIC [12]?
Answer: > 100 µg/mL

Question: And the MIC [13]?
Answer: 1.56 µg/mL

Question: What about the MIC [14] of the same compound?
Answer: 1.56 µg/mL

Question: And the MIC [15]?
Answer: 1.56 µg/mL

Question: And the MIC [16]?
Answer: 1.56 µg/mL

Question: And the MIC [17]?
Answer: 1.56 µg/mL

Question: What about the MIC [18] of the same compound?
Answer: 2 µg/mL

Question: And the MIC [19]?
Answer: 128 µg/mL

Question: What about the MIC [20] of the same compound?
Answer: 1 µg/mL

Question: What about the MIC [21] of the same compound?
Answer: 0.25 µg/mL

Question: What about the MIC [22] of the same compound?
Answer: 0.39 µg/mL

Question: And the MIC [23]?
Answer: 0.2 µg/mL

Question: And the MIC [24]?
Answer: > 100 µg/mL

Question: And the MIC [25]?
Answer: 0.39 µg/mL

Question: What about the MIC [26] of the same compound?
Answer: 0.78 µg/mL

Question: What does the source list for CC[C@H]1OC(=O)[C@H](C)C(=O)[C@H](C)[C@@H](O[C@@H]2O[C@H](C)C[C@H](N(C)C)[C@H]2O)[C@@](C)(OCCNCc2ccncc2)C[C@@H](C)C(=O)[C@H](C)[C@@H](O)[C@]1(C)O [Example 12, Compound of Formula (VIII): X is O, R is —CH2CH2NHCH2-(4-pyridyl)]?
Answer: MIC [1]: > 100 µg/mL; MIC [2]: 1.56 µg/mL; MIC [3]: > 100 µg/mL; MIC [4]: > 100 µg/mL; MIC (Escherichia coli SS (code RR)): 0.39 µg/mL; MIC [5]: 32 µg/mL; MIC [6]: 0.78 µg/mL; MIC [7]: 0.39 µg/mL; MIC [9]: 0.39 µg/mL; MIC [10]: > 100 µg/mL; MIC [11]: 3.1 µg/mL; MIC [12]: > 100 µg/mL; MIC [13]: 6.2 µg/mL; MIC [14]: 6.2 µg/mL; MIC [15]: 6.2 µg/mL; MIC [16]: 6.2 µg/mL; MIC [17]: 12.5 µg/mL; MIC [18]: 2 µg/mL; MIC [19]: > 128 µg/mL; MIC [20]: 0.25 µg/mL; MIC [22]: 0.78 µg/mL; MIC [23]: 0.2 µg/mL; MIC [24]: > 100 µg/mL; MIC [25]: 0.39 µg/mL; MIC [26]: 1.56 µg/mL

Question: C=CCO[C@@]1(C)C[C@@H](C)C(=O)[C@H](C)[C@H]2NC(=O)O[C@]2(C)[C@@H](CC)OC(=O)[C@H](C)C(=O)[C@H](C)[C@H]1O[C@@H]1O[C@H](C)C[C@H](N(C)C)[C@H]1O [Example 102, Formula (IX): L is CO, T is NH, R is —CH2CH═CH2] was tested. Which MIC [1] did it give?
Answer: > 100 µg/mL

Question: And the MIC [2]?
Answer: 0.78 µg/mL

Question: And the MIC [3]?
Answer: > 100 µg/mL

Question: What about the MIC [4] of the same compound?
Answer: > 100 µg/mL

Question: What about the MIC (Escherichia coli SS (code RR)) of the same compound?
Answer: 1.56 µg/mL

Question: What about the MIC [5] of the same compound?
Answer: 64 µg/mL

Question: And the MIC [6]?
Answer: 0.78 µg/mL

Question: What about the MIC [7] of the same compound?
Answer: 0.2 µg/mL

Question: What about the MIC [8] of the same compound?
Answer: 25 µg/mL

Question: And the MIC [9]?
Answer: 1.56 µg/mL

Question: And the MIC [10]?
Answer: > 100 µg/mL

Question: And the MIC [11]?
Answer: 1.56 µg/mL

Question: And the MIC [12]?
Answer: > 100 µg/mL

Question: And the MIC [13]?
Answer: 0.78 µg/mL

Question: What about the MIC [14] of the same compound?
Answer: 1.56 µg/mL

Question: What about the MIC [15] of the same compound?
Answer: 1.56 µg/mL

Question: What about the MIC [16] of the same compound?
Answer: 0.78 µg/mL

Question: What about the MIC [17] of the same compound?
Answer: 1.56 µg/mL

Question: What about the MIC [18] of the same compound?
Answer: 0.25 µg/mL

Question: What about the MIC [19] of the same compound?
Answer: > 64 µg/mL

Question: What about the MIC [20] of the same compound?
Answer: 0.5 µg/mL

Question: And the MIC [21]?
Answer: 0.25 µg/mL

Question: And the MIC [22]?
Answer: 0.2 µg/mL

Question: And the MIC [23]?
Answer: 0.2 µg/mL

Question: And the MIC [24]?
Answer: > 100 µg/mL

Question: What about the MIC [25] of the same compound?
Answer: 0.2 µg/mL

Question: What about the MIC [26] of the same compound?
Answer: 0.2 µg/mL

Question: Which results are given for CCC1OC(=O)C(C)C(=O)C(C)C(OC2OC(C)CC(N(C)C)C2O)C(C)(OCC=Cc2cccc([N+](=O)[O-])c2)CC(C)C(=O)C(C)C2NC(=O)OC12C (centres unmarked) [Example 193, R is —CH2CH═CH-(3-nitrophenyl)]?
Answer: MIC [1]: > 100 µg/mL; MIC [2]: 0.02 µg/mL (≈ 0.0263 µM); MIC [3]: > 100 µg/mL; MIC [4]: 100 µg/mL (≈ 132 µM); MIC (Escherichia coli SS (code RR)): 0.2 µg/mL (≈ 0.263 µM); MIC [6]: 0.1 µg/mL (≈ 0.132 µM); MIC [7]: 0.01 µg/mL (≈ 0.0132 µM); MIC [8]: 0.39 µg/mL (≈ 0.513 µM); MIC [9]: 0.05 µg/mL (≈ 0.0658 µM); MIC [10]: > 100 µg/mL; MIC [11]: 0.1 µg/mL (≈ 0.132 µM); MIC [12]: > 100 µg/mL; MIC [13]: 0.05 µg/mL (≈ 0.0658 µM); MIC [14]: 0.1 µg/mL (≈ 0.132 µM); MIC [15]: 0.1 µg/mL (≈ 0.132 µM); MIC [16]: 0.1 µg/mL (≈ 0.132 µM); MIC [17]: 0.1 µg/mL (≈ 0.132 µM); MIC [22]: 0.01 µg/mL (≈ 0.0132 µM); MIC [23]: 0.01 µg/mL (≈ 0.0132 µM); MIC [24]: 25 µg/mL (≈ 32.9 µM); MIC [25]: ≤ 0.005 µg/mL; MIC [26]: 0.05 µg/mL (≈ 0.0658 µM)

Question: For CC[C@H]1OC(=O)[C@H](C)C(=O)[C@H](C)[C@@H](O[C@@H]2O[C@H](C)C[C@H](N(C)C)[C@H]2O)[C@@](C)(OCC(=O)c2ccccc2)C[C@@H](C)C(=O)[C@H](C)[C@H]2NC(=O)O[C@@]21C [Example 239, Compound of Formula (IX): L is CO, T is NH, R is —CH2C(O)-phenyl], which MIC (organism code AA) is on record?
Answer: 6.2 µg/mL

Question: What about the MIC (organism code BB) of the same compound?
Answer: 6.2 µg/mL

Question: What about the MIC (organism code CC) of the same compound?
Answer: > 100 µg/mL

Question: What about the MIC (organism code DD) of the same compound?
Answer: 6.2 µg/mL

Question: And the MIC (organism code EE)?
Answer: 6.2 µg/mL

Question: And the MIC (organism code FF)?
Answer: 6.2 µg/mL

Question: What about the MIC (organism code GG) of the same compound?
Answer: > 100 µg/mL

Question: And the MIC (organism code HH)?
Answer: 6.2 µg/mL

Question: What about the MIC (organism code II) of the same compound?
Answer: 1.56 µg/mL

Question: What about the MIC (organism code JJ) of the same compound?
Answer: 0.39 µg/mL

Question: And the MIC (organism code KK)?
Answer: 0.39 µg/mL

Question: And the MIC (organism code LL)?
Answer: 0.39 µg/mL

Question: And the MIC (organism code MM)?
Answer: > 100 µg/mL

Question: What about the MIC (organism code NN) of the same compound?
Answer: 1.56 µg/mL

Question: And the MIC (organism code OO)?
Answer: 0.39 µg/mL

Question: And the MIC (organism code PP)?
Answer: 1.56 µg/mL

Question: What about the MIC (organism code QQ) of the same compound?
Answer: > 100 µg/mL

Question: And the MIC (organism code RR)?
Answer: 6.1 µg/mL

Question: And the MIC (organism code SS)?
Answer: > 100 µg/mL

Question: And the MIC (organism code TT)?
Answer: > 100 µg/mL

Question: And the MIC (organism code UU)?
Answer: 50 µg/mL

Question: What about the MIC (organism code VV) of the same compound?
Answer: 3.1 µg/mL

Question: And the MIC (organism code WW)?
Answer: 64 µg/mL

Question: What about the MIC (organism code XX) of the same compound?
Answer: 0.25 µg/mL

Question: What about the MIC (organism code YY) of the same compound?
Answer: 0.25 µg/mL

Question: What about the MIC (organism code ZZ) of the same compound?
Answer: > 128 µg/mL

Question: And the MIC (organism code ZZA)?
Answer: 1 µg/mL

Source: USRE39591E1, “6-O-substituted ketolides having antibacterial activity” (Abbott Laboratories, priority 1996, dated 2007)
